Data taken from ChEMBL document CHEMBL1131886 (Bioorg Med Chem Lett, 1999).
pEC50, pKi: −log10 of the molar value.

Experiments:
[1] = molecular target: T1, 5-hydroxytryptamine receptor 1A (Homo sapiens, UniProt P08908); experiment: Stimulation of [35S]- […] binding to cloned human 5-hydroxytryptamine 1A receptor stably expressed in HeLa cells; Inverse; assay type: cell-based
T1 sequence (P08908 whole entry): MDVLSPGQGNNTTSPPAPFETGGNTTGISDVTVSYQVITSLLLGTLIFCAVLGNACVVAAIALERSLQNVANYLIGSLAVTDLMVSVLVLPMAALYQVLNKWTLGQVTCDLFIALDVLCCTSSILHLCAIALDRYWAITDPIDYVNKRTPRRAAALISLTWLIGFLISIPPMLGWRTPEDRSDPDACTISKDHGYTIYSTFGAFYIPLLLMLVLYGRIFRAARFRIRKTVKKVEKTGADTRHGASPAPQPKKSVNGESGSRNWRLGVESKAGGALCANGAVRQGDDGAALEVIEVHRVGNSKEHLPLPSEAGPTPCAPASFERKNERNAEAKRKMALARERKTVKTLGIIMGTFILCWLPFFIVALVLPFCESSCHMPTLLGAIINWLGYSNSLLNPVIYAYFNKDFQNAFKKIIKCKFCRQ

[2] = molecular target: T1, 5-hydroxytryptamine receptor 1A; experiment: Displacement of specific [3H]- 5-HT binding to cloned human 5-hydroxytryptamine 1A receptor stably expressed in HeLa cells; assay type: cell-based
[3] = molecular target: Sodium-dependent serotonin transporter (Rattus norvegicus, UniProt P31652); experiment: Displacement of specific [3H]- citalopram binding to 5-HT uptake site in rat whole cortex
[4] = molecular target: T1, 5-hydroxytryptamine receptor 1A; experiment: Stimulation of [35S]- GIPyS binding to cloned human 5-hydroxytryptamine 1A receptor stably expressed in HeLa cells; assay type: cell-based
[5] = molecular target: T2, 5-hydroxytryptamine receptor 1A (Homo sapiens) (UniProt P08908); experiment: Percent efficacy against human 5-hydroxytryptamine 1A receptor relative to maximal 5-HT response; assay type: functional
T2 sequence (whole entry): T1 sequence (P08908 whole entry)

[6] = molecular target: T2, 5-hydroxytryptamine receptor 1A (Homo sapiens); experiment: Percent efficacy against cloned human 5-hydroxytryptamine 1A receptor normalized to the maximal 5-HT response; assay type: functional

Sodium-dependent serotonin transporter, sequence (P31652 whole entry): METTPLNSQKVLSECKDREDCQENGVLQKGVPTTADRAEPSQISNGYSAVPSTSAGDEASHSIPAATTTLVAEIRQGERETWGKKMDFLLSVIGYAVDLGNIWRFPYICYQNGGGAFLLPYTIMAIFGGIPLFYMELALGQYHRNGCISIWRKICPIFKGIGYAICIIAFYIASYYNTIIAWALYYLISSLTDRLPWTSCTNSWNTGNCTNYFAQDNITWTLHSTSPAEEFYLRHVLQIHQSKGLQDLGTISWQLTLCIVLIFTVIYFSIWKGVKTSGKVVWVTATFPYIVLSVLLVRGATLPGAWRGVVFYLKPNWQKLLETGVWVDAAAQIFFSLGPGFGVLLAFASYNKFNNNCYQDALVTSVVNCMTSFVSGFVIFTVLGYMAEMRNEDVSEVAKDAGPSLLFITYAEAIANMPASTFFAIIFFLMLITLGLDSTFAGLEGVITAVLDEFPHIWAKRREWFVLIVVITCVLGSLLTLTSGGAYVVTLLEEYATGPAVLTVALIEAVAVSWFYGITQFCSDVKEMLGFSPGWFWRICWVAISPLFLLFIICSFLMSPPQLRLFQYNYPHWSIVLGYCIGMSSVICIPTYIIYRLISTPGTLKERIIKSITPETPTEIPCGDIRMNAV

Row | Structure (SMILES) | EC50 [1] | pKi [2] | pKi [3] | pEC50 [4] | Efficacy [5] | Efficacy [6]
1 | OC(COc1cc(F)cc2c1OCCC2)CN1CCC2(CC1)OCc1c2ccc2ccccc12 (stereo not drawn) | Inverse agonist | 8.26 | 7.14 | – | – | –
2 | OC(CCc1ccccc1)CN1CCC2(CC1)OCc1c2ccc2ccccc12 (stereo not drawn) | – | 8.08 | 8.00 | 7.43 | 87% | –
3 | OC(COc1ccc(F)c2c1OCCC2)CN1CCC2(CC1)OCc1c2ccc2ccccc12 (stereo not drawn) | – | 8.55 | 7.31 | < 5.00 | – | –
4 | O=C1CCc2c(F)ccc(OCC(O)CN3CCC4(CC3)OCc3c4ccc4ccccc34)c21 (stereo not drawn) | – | 8.64 | 7.35 | 8.46 | – | 65%
5 | c1ccc(CCCCN2CCC3(CC2)OCc2c3ccc3ccccc23)cc1 | – | 7.14 | 7.55 | < 5.00 | – | –
6 | CC(C)NCC(O)COc1cccc2[nH]ccc12 (stereo not drawn) | – | – | – | – | 36% | –
7 | O[C@@H](COc1ccccc1F)CN1CCC2(CC1)OCc1c2ccc2ccccc12 | – | 8.22 | 6.92 | 7.68 | 92% | –
8 | OC(COCc1ccccc1)CN1CCC2(CC1)OCc1c2ccc2ccccc12 (stereo not drawn) | – | 8.66 | 7.08 | 7.51 | 108% | –
9 | O[C@H](COc1ccccc1)CN1CCC2(CC1)OCc1c2ccc2ccccc12 | – | 8.96 | 7.30 | 8.92 | 81% | –
10 | CCc1cccc(OC[C@@H](O)CN2CCC3(CC2)OCc2c3ccc3ccccc23)c1 | – | 8.77 | 7.06 | 8.48 | 61% | –
11 | O[C@H](COc1ccccc1F)CN1CCC2(CC1)OCc1c2ccc2ccccc12 | – | 9.00 | 7.28 | 8.96 | 100% | –
